Patent US20120122820A1, “PRODRUGS AND THE USE THEREOF” (Bayer Schering Pharma Aktiengesellschaft, priority 2007, published 2012)
Converted amounts (≈) assume the structure as drawn. Structures can show the parent of a compound that is named as a salt.

Tests used:
[1] = Stability in buffer at various pH values; type: physicochemical
Method: 0.3 mg of the test substance is weighed into a 2 ml HPLC vial and 0.5 ml of acetonitrile or acetonitrile/DMSO (9:1) is added. The substance is dissolved by putting the sample vessel in an ultrasonic bath for about 10 seconds. Then 0.5 ml of the respective (buffer) solution is added, and the sample is again treated in the ultrasonic bath.
• pH 4: 1 liter of Millipore water is adjusted to pH 4.0 with 1 N hydrochloric acid; • pH 5: 0.096 mol of citric acid and 0.2 mol of sodium hydroxide ad 1 liter of water; • pH 7.4: 90.0 g of sodium chloride, 13.61 g of potassium dihydrogen phosphate and 83.35 g of 1 N sodium hydroxide solution are made up to 1 liter with water; this solution is then further diluted 1:10 with Millipore water. • pH 8: 0.013 mol of borax and 0.021 mol of hydrochloric acid ad 1 liter of water.
5 μl portions of the sample solution are analyzed by HPLC for their content of unchanged test substance, and of parent substance (A) produced, every hour over a period of 24 hours at 37° C. The percentage areas of the appropriate peaks are used for quantification.
HPLC method for Examples 1-21:
Agilent 1100 with DAD (G1314A), binary pump (G1312A), autosampler (G1329A), column oven (G1316A), thermostat (G1330A); column: Kromasil 100 C18, 60 mm×2.1 mm, 3.5 μm; column temperature: 30° C.; eluent A: water+5 ml of perchloric acid/liter, eluent B: acetonitrile; gradient: 0-1.0 min 98% A, 2% B; 1.0-9.0 min 2% A, 98% B; 9.0-13.0 min 2% A, 98% B; 13.0-13.5 min 98% A, 2% B; 13.5-15.0 min 98% A, 2% B; flow rate: 0.75 ml/min; UV detection: 210 nm.
HPLC method for Examples 22-40:
The ratios of the peak areas (F) at the respective time points in relation to the peak areas at the starting time are shown in Table 3 for representative exemplary embodiments: […]

[2] = Determination of the solubility (24 h shaking at room temperature, ultracentrifugation, HPLC); type: physicochemical; settings: thermodynamic from solid
Method: The test substance is suspended in water or dilute hydrochloric acid (pH 4) [Examples 1-21] or in 5% strength aqueous dextrose solution [Examples 22-40]. This suspension is shaken at room temperature for 24 h. After ultracentrifugation at 224 000 g for 30 min, the supernatant is diluted with DMSO and analyzed by HPLC. A two-point calibration plot of the test compound in DMSO is used for quantification.
Agilent 1100 with DAD (G1315A), quat. pump (G1311A), autosampler CTC HTS PAL, degasser (G1322A) and column thermostat (G1316A); column: Phenomenex Gemini C18, 5 μm, 50 mm×2 mm; temperature: 40° C.; eluent A: water/phosphoric acid pH 2, eluent B: acetonitrile; flow rate: 0.7 ml/min; gradient: 0-0.5 min 85% A, 15% B; ramp 0.5-3 min 10% A, 90% B; 3-3.5 min 10% A, 90% B; ramp 3.5-4 min 85% A, 15% B; 4-5 min 85% A, 15% B.
Agilent 1100 with DAD (G1315A), quat. pump (G1311A), autosampler CTC HTS PAL, degasser (G1322A) and column thermostat (G1316A); column: VDSoptilab Kromasil 100 C18, 3.5 μm, 60 mm×2.1 mm; temperature: 30° C.; eluent A: water+5 ml of perchloric acid/liter, eluent B: acetonitrile; flow rate: 0.75 ml/min; gradient: 0-0.5 min 98% A, 2% B; ramp 0.5-4.5 min 10% A, 90% B; 4.5-6 min 10% A, 90% B; ramp 6.5-6.7 min 98% A, 2% B; 6.7-7.5 min 98% A, 2% B.

[3] = saline or isotonic, 5% strength aqueous dextrose solution
[4] = aqueous buffer, dilute hydrochloric acid (pH 4)

Structure (SMILES) | % test substance after 4 h [F(t = 4 h) × 100/F(t = 0 h)] ([1]; pH 4, 37° C.) [%] | % test substance after 24 h [F(t = 24 h) × 100/F(t = 0 h)] ([1]; pH 4, 37° C.) [%] | % test substance after 4 h [F(t = 4 h) × 100/F(t = 0 h)] ([1]; pH 7.4, 37° C.) [%] | % test substance after 24 h [F(t = 24 h) × 100/F(t = 0 h)] ([1]; pH 7.4, 37° C.) [%] | solubility at 24 h [2, 4] [µg/mL] | further results
N#Cc1c(N)nc(SCc2csc(-c3ccc(Cl)cc3)n2)c(C#N)c1-c1ccc(OCCOC(=O)[C@@H](N)Cc2ccccc2)cc1 [Example 16, 2-{4-[2-Amino-6-({[2-(4-chlorophenyl)-1,3-thiazol-4-yl]methyl}thio)-3,5-dicyanopyridin-4-yl]-phenoxy}ethyl L-phenylalaninate hydrochloride] | 100 | 100 |  |  |  | % test substance after 4 h [F(t = 4 h) × 100/F(t = 0 h)] ([1]; pH 8, 37° C.): 100%; % test substance after 24 h [F(t = 24 h) × 100/F(t = 0 h)] ([1]; pH 8, 37° C.): 100%
N#Cc1c(N)nc(SCc2csc(-c3ccc(Cl)cc3)n2)c(C#N)c1-c1ccc(OCCOC(=O)[C@@H]2CCCN2)cc1 [Example 9, 2-{4-[2-Amino-6-({[2-(4-chlorophenyl)-1,3-thiazol-4-yl]methyl}thio)-3,5-dicyanopyridin-4-yl]-phenoxy}ethyl L-prolinate hydrochloride] |  |  |  |  | 50 | 
N#Cc1c(N)nc(SCc2csc(-c3ccc(Cl)cc3)n2)c(C#N)c1-c1ccc(OCCOC(=O)/C=C\C(=O)O)cc1 [Example 31, 2-Hydroxy-N,N,N-trimethylethanaminium (2Z)-4-(2-{4-[2-amino-6-({[2-(4-chlorophenyl)-1,3-thiazol-4-yl]methyl}thio)-3,5-dicyanopyridin-4-yl]phenoxy}ethoxy)-4-oxobut-2-enoate] |  |  |  |  |  | solubility at 24 h [2, 3]: 4 µg/mL (≈ 6.47 µM)
N#Cc1c(N)nc(SCc2csc(-c3ccc(Cl)cc3)n2)c(C#N)c1-c1ccc(OCCOC(=O)[C@@H](N)Cc2c[nH]cn2)cc1 [Example 33, 2-{4-[2-Amino-6-({[2-(4-chlorophenyl)-1,3-thiazol-4-yl]methyl}thio)-3,5-dicyanopyridin-4-yl]-phenoxy}ethyl L-histidinate dihydrochloride] |  |  |  |  |  | solubility at 24 h [2, 3]: 195 µg/mL
CS(=O)(=O)O.N#Cc1c(N)nc(SCc2csc(-c3ccc(Cl)cc3)n2)c(C#N)c1-c1ccc(OCCOC(=O)[C@@H](N)Cc2ccccc2)cc1 [Example 18, 2-{4-[2-Amino-6-({[2-(4-chlorophenyl)-1,3-thiazol-4-yl]methyl}thio)-3,5-dicyanopyridin-4-yl]-phenoxy}ethyl L-phenylalaninate methanesulfonic acid salt] |  |  |  |  | 60 | 
CC(C)[C@H](N)C(=O)OCCOc1ccc(-c2c(C#N)c(N)nc(SCc3csc(-c4ccc(Cl)cc4)n3)c2C#N)cc1 [Example 23, 2-{4-[2-Amino-6-({[2-(4-chlorophenyl)-1,3-thiazol-4-yl]methyl}thio)-3,5-dicyanopyridin-4-yl]-phenoxy}ethyl L-valinate dihydrochloride] | 100 | 99 | 100 | 96 |  | 
N#Cc1c(N)nc(SCc2csc(-c3ccc(Cl)cc3)n2)c(C#N)c1-c1ccc(OCCOC(=O)[C@@H](N)CCCCN)cc1 [Example 14, 2-{4-[2-Amino-6-({[2-(4-chlorophenyl)-1,3-thiazol-4-yl]methyl}thio)-3,5-dicyanopyridin-4-yl]-phenoxy}ethyl L-lysinate dihydrochloride] | 100 | 100 |  |  |  | % test substance after 4 h [F(t = 4 h) × 100/F(t = 0 h)] ([1]; pH 8, 37° C.): 96%; % test substance after 24 h [F(t = 24 h) × 100/F(t = 0 h)] ([1]; pH 8, 37° C.): 76%
Cc1ccc(S(=O)(=O)[O-])cc1.N#Cc1c(N)nc(SCc2csc(-c3ccc(Cl)cc3)n2)c(C#N)c1-c1ccc(OCCOC(=O)[C@@H]2CCC[NH2+]2)cc1 [Example 10, 2-{4-[2-Amino-6-({[2-(4-chlorophenyl)-1,3-thiazol-4-yl]methyl}thio)-3,5-dicyanopyridin-4-yl]-phenoxy}ethyl L-prolinate p-toluenesulfonic acid salt] |  |  |  |  | 8 | 
CN(C)CC(=O)Nc1nc(SCc2csc(-c3ccc(Cl)cc3)n2)c(C#N)c(-c2ccc(OCCOC(=O)CN(C)C)cc2)c1C#N [Example 35, 2-(4-{2-({[2-(4-Chlorophenyl)-1,3-thiazol-4-yl]methyl}thio)-3,5-dicyano-6-[(N,N-dimethylglycyl)-amino]pyridin-4-yl}phenoxy)ethyl N,N-dimethylglycinate dihydrochloride] |  |  |  |  |  | % test substance after 24 h [F(t = 24 h) × 100/F(t = 0 h)] ([1]; pH 4, 37° C., dihydrochloride): 100%; % test substance after 24 h [F(t = 24 h) × 100/F(t = 0 h)] ([1]; pH 7.4, 37° C., dihydrochloride): 98%

More lines, main results first:

% test substance after 4 h [F(t = 4 h) × 100/F(t = 0 h)] ([1]; pH 4, 37° C.) [%] | % test substance after 24 h [F(t = 24 h) × 100/F(t = 0 h)] ([1]; pH 4, 37° C.) [%] | % test substance after 4 h [F(t = 4 h) × 100/F(t = 0 h)] ([1]; pH 7.4, 37° C.) [%] | % test substance after 24 h [F(t = 24 h) × 100/F(t = 0 h)] ([1]; pH 7.4, 37° C.) [%] | solubility at 24 h [2, 4] [µg/mL] | Structure (SMILES) | further results
100 | 100 | 100 | 100 |  | N#Cc1c(N)nc(SCc2csc(-c3ccc(Cl)cc3)n2)c(C#N)c1-c1ccc(OCCOC(=O)CCC(=O)O)cc1 [Example 28, 2-Hydroxy-N,N,N-trimethylethanaminium 4-(2-{4-[2-amino-6-({[2-(4-chlorophenyl)-1,3-thiazol-4-yl]methyl}thio)-3,5-dicyanopyridin-4-yl]phenoxy}ethoxy) 4-oxobutanoate] | 
100 | 100 | 41 | 4 |  | N#Cc1c(NC(=O)CCCN)nc(SCc2csc(-c3ccc(Cl)cc3)n2)c(C#N)c1-c1ccc(OCCOC(=O)CCCN)cc1 [Example 25, 2-(4-{2-[(4-Aminobutanoyl)amino]-6-({[2-(4-chlorophenyl)-1,3-thiazol-4-yl]methyl}thio)-3,5-di-cyanopyridin-4-yl}phenoxy)ethyl 4-aminobutanoate dihydrochloride] | solubility at 24 h [2, 3]: 730 µg/mL
100 | 100 | 11 | 2 |  | N#Cc1c(NC(=O)CCN)nc(SCc2csc(-c3ccc(Cl)cc3)n2)c(C#N)c1-c1ccc(OCCOC(=O)CCN)cc1 [Example 26, 2-{4-[2-(beta-Alanylamino)-6-({[2-(4-chlorophenyl)-1,3-thiazol-4-yl]methyl}thio)-3,5-dicyano-pyridin-4-yl]phenoxy}ethyl beta-alaninate dihydrochloride] | solubility at 24 h [2, 3]: > 500 µg/mL
100 | 97 | 100 | 97 |  | CN(C)CC(=O)Nc1nc(SCc2csc(-c3ccc(Cl)cc3)n2)c(C#N)c(-c2ccc(OCCOC(=O)CN(C)C)cc2)c1C#N [Example 34, 2-(4-{2-({[2-(4-Chlorophenyl)-1,3-thiazol-4-yl]methyl}thio)-3,5-dicyano-6-[(N,N-dimethylglycyl)-amino]pyridin-4-yl}phenoxy)ethyl N,N-dimethylglycinate] | 
 |  |  |  | 70 | N#Cc1c(N)nc(SCc2csc(-c3ccc(Cl)cc3)n2)c(C#N)c1-c1ccc(OCCOC(=O)[C@@H](N)CO)cc1 [Example 11, 2-{4-[2-Amino-6-({[2-(4-chlorophenyl)-1,3-thiazol-4-yl]methyl}thio)-3,5-dicyanopyridin-4-yl]-phenoxy}ethyl L-serinate hydrochloride] | 
 |  |  |  | 90 | N#Cc1c(N)nc(SCc2csc(-c3ccc(Cl)cc3)n2)c(C#N)c1-c1ccc(OCCOC(=O)CN)cc1 [Example 6, 2-{4-[2-Amino-6-({[2-(4-chlorophenyl)-1,3-thiazol-4-yl]methyl}thio)-3,5-dicyanopyridin-4-yl]-phenoxy}ethyl glycinate dihydrochloride] | 
